# Entries after “also recorded” stand apart in the source; their conditions may differ. Where two headings read alike, the source gives them in different places.
# Experiments:
# Vero cells = assay: Vero cell cytotoxicity (MTS assay); type: cell-based; details: 24 h, read-out: CC50 (95% CI), Vero cells
# SARS-CoV-2 Alpha = type: in vivo, Syrian hamster
# HSV-2 [1] = assay: HSV-2 inhibition under four treatment conditions (cell pretreatment, virus pretreatment, cotreatment, post-treatment); type: cell-based
# HSV-2 [2] = assay: HSV-2 DNA release (DNA exposure) assay with DNase; details: 43.2 and 86.5 μM
# Protocol: To determine whether the virucidal effect is caused by the damage to the viral particles, we performed DNA release assays. Briefly, we incubated HSV-2 and B6C11S mixtures with DNase or buffer, inactivated the DNase, and then quantified the DNA amounts in the two samples (Figure 2c).
# MDCK cells = details: read-out: CC50 (95% CI), MDCK cells
# TZM-bl cells = assay: TZM-bl cell cytotoxicity (WST-1); details: read-out: CC50 (95% CI), TZM-bl cells; HIV-1 line
# Raji cells = assay: Raji cell cytotoxicity (Zombie NIR flow cytometry); details: read-out: CC50 (95% CI), Raji cells; EBV line
# HEK293T cells = assay: HEK293T cell cytotoxicity (Zombie NIR flow cytometry); details: read-out: CC50 (95% CI), 293T cells; HEK293T cells; KSHV line
smiles,measurement,setting,value
O=S(=O)(O)OCCCCCCCCCCCSCc1c(CSCCCCCCCCCCCOS(=O)(=O)O)c(CSCCCCCCCCCCCOS(=O)(=O)O)c(CSCCCCCCCCCCCOS(=O)(=O)O)c(CSCCCCCCCCCCCOS(=O)(=O)O)c1CSCCCCCCCCCCCOS(=O)(=O)O [B6C11S],CC50,Vero cells,200 µM
same,body weight change of infected hamsters,"SARS-CoV-2 Alpha; […], vs untreated group",no significant change
same,body weight change of infected hamsters,"SARS-CoV-2 Alpha; hamster, in vivo",decreased the body weight change
same,histopathological evaluation of lung tissues,"SARS-CoV-2 Alpha; hamster, in vivo",improved pulmonary conditions
same,infectious viral titer (TCID50) in the lungs vs untreated,"SARS-CoV-2 Alpha; hamster, in vivo",significantly decreased the viral titer; also recorded: significant reduction in the infectious viral load
same,severe lung damage (histopathology categories E and F),"SARS-CoV-2 Alpha; hamster, in vivo",reducing severe lung damage
same,viral RNA copies in lung vs untreated,"SARS-CoV-2 Alpha; hamster, in vivo",significantly decreased viral RNA copies
same,viral RNA levels in oral swab vs untreated,"SARS-CoV-2 Alpha; hamster, in vivo",significantly lower viral RNA levels
same,viral titers (viral RNA) in swab samples and lung tissues vs untreated,"SARS-CoV-2 Alpha; hamster, in vivo",did not find any notable differences; also recorded: No statistical difference
same,"HSV-2 inhibition, cell pretreatment","HSV-2 [1]; condition (i) cell pretreatment, 21.6 μM",no inhibition
same,decrease of percentage of infected cells,"HSV-2 [1]; condition (ii) virus pretreatment, 5.4 μM",over 85%
same,decrease of percentage of infected cells,"HSV-2 [1]; condition (iii) cotreatment, 5.4 μM",over 85%
same,decrease of percentage of infected cells,"HSV-2 [1]; condition (iv) post-treatment, 21.6 μM",85%
same,release of viral DNA (HSV-2),HSV-2 [2],induced the release of viral DNA
same,CC50,"Vero E6 cells; read-out: CC50 (95% CI), Vero E6 cells, SARS-CoV-2 (Alpha) line",17.5 µM
same,CC50,"Vero E6 cells; read-out: CC50 (95% CI), Vero E6 cells, value repeated in the SARS-CoV-2 (Omicron) line",17.5 µM
same,CC50,MDCK cells,> 5.4 µM
same,CC50,TZM-bl cells,> 54 µM
same,CC50,Raji cells,> 162 µM
same,CC50,HEK293T cells,> 162 µM
